Test results taken from patent publication US11261230B2, “Synthetic somatostatin receptor ligands” (TEL HASHOMER MEDICAL RESEARCH INFRASTRUCTURE AND SERVICES …, priority 2014, dated 2022).
*1 amine or outer side, *2 acyl side, *3 side chain or, on linkers, in order; H or OH if unused. Where a SMILES comes first, the peptide text is derived from it. Bridges are numbered along the chain shown (N, C = ends). [ ]: non-standard residue; d: D form. The star is where a group is joined. FITC = O=C1OC2(c3ccc(O)cc3Oc3cc(O)ccc32)c2ccc(NC(=S)*)cc21; N(2-mercaptoethyl)Gly = O=C(CN(CCS[*:3])[*:1])[*:2]; GABA = NCCCC(=O)O

Key:
PANC-1 tumors = assay: In vivo biodistribution in PANC-1 xenograft mice, Maestro fluorescence imaging of harvested tissue; details: 1 day after administration, tissues as named in the value
Experimental: Five different pharmaceutical compositions were prepared, each by dissolving 1 mg of a different Somatostatin receptor ligand in 1 liter PBS.
Solid human-derived tumors were induced in 15 nude mice by subcutaneous injection of a suspension containing ˜5□10^5 human cancer cells (PANC-1) into the flank area of the mice.
2-3 weeks after the injection of the cancer cells, it was observed that the mice developed solid tumors with diameters of approximately 5-10 mm.
0.3 ml of each one of the five pharmaceutical compositions were systemically administered to three of the fifteen xenograft mice by injection into the tail vein using a 30 G needle.
The fifteen mice were sacrificed and from the bodies tumors, pancreas, spleen, kidney and liver were harvested.
The fluorescence of the harvested tissue was determined using the Maestro™ in vivo fluorescence imaging system (Cambridge Research & Instrumentation, Inc., Woburn, Mass., USA).

human SSTR4 = molecular target: T1, human SSTR4 (Homo sapiens, UniProt P31391); assay: Binding to transfected HEK cells expressing a single SSTRx subtype, FACS
T1 construct: expressed in transfected cells; host or cells: HEK-293, transient transfection, pcDNA 3.1
Experimental: (§1) The affinity of compounds 1-16 to each of the five SSTRx was tested using an in vitro model of transfected cell lines (HEK—human embryonic kidney), each expressing a single human SSTRx subtype. Biological activity assessment of the compounds to define a specific affinity to each subtype was performed by FACS and fluorescence imaging methods.
(§2) Human SSTRx were expressed in the cells by transient transfection. Each SSTR was expressed separately, creating five different cell lines using human gene transcript.
(§3) The transfection process is illustrated in FIG. 1. The transient transfection process was carried out before each experiment. Briefly, HEK cells were cultured in standard cell growth conditions. For testing, the cells were transferred into 96-well plates. The tested compounds were dissolved in DMSO and then diluted in a buffer solution to a final DMSO concentration of 5% as a composition according to the teachings herein. Various amounts of the thus-prepared compositions were added to the cells in medium in the 96-well plates and allowed to incubate for between 1 and 24 hours. Binding was determined using fluorescent microscopy and FACS.
(§4) Qualitative assessment of binding efficiency was done by visual inspection and digital photography using an inverted fluorescent microscope. Quantitative assessment was done using FACS.
(§5) HEK-293 cells (human embryonic kidney) were grown in Dulbecco's modified Eagle's medium (DMEM) supplemented with 4 mM glutamine, 10% fetal bovine serum (FBS) and 100 units/ml penicillin/streptomycin at 37° C./5% carbon dioxide. One day prior to transfection, the cells were trypsinized, counted and plated at a density of 3×10^5 per 35 mm diameter dish. Until 70% confluency, cells were transiently transfected with the pcDNA 3.1 vector bearing the coding region for the human SSTR human somatostatin receptor subtypes SSTR1-SSTR5. Transfections were carried out with JetPei transfection reagent (Polyplus-transfection, NY, USA) according to the manufacturer's recommendation. Briefly, 2 micrograms of plasmid DNA and 6 microliter of JetPei transfection reagent were used for each transfection. Each of the components were resuspended in 100 microliter of 150 mM NaCl, mixed and incubated for 25 minutes at room temperature and after incubation added to cells.
(§6) Cells were then seeded in a 96-well flat-bottom microplate (Costar, Corning, N.Y.) at a concentration of 5×10^4 cells/well. Twelve hours later, the supernatant was removed and replaced with fresh DMEM containing various (in the nM range) concentrations of tested compounds 1-16. The cells were incubated for additional time intervals ranging from 0.5-24 hr. At the end of the incubation period, supernatant was discarded and the cells were washed twice with cold PBS. The plates were examined using IX81 inverted microscope (Olympus, Japan) equipped with […] digital camera. Additionally, a FACS assay was used for quantitative analysis.
(§7) Quantitative assessment of binding affinity of Compounds 1-16 was performed by FACS in the transfected HEK cell model.
(§8) Quantitatively, specific binding affinity was assessed as the percentage of double stained [(GR=green and red indicating transfection)/(R is total red) less (G is green indicating unspecific binding)]: specific binding affinity=[GR/R−G]

human SSTR5 = molecular target: T2, human SSTR5 (Homo sapiens, UniProt P35346); assay: Binding to transfected HEK cells expressing a single SSTRx subtype, FACS and fluorescence microscopy
T2 construct: expressed in transfected cells; host or cells: HEK-293, transient transfection, pcDNA 3.1
Experimental: as §1, §2, §3, §4, §5, §6, §7, §8

SSTR1-SSTR5 = details: background statement; cited from earlier work
[1] = FACS, transfected HEK, specific binding affinity = percentage double stained [GR/R−G], 0 = no binding detected
[2] = Table 2 normalized according to the highest binding affinity of that compound
[3] = Table 2 normalized to Compound 1 (=100)

T1 sequence (P31391 whole entry): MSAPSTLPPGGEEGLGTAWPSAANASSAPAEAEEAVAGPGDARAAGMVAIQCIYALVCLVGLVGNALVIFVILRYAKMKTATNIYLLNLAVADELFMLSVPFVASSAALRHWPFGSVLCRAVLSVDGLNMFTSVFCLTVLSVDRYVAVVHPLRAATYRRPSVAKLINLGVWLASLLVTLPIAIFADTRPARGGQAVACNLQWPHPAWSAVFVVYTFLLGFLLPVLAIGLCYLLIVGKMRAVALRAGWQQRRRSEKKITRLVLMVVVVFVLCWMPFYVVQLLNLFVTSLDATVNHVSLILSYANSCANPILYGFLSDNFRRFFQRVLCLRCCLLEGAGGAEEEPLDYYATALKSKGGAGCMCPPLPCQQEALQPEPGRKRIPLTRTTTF
T2 sequence (P35346 whole entry): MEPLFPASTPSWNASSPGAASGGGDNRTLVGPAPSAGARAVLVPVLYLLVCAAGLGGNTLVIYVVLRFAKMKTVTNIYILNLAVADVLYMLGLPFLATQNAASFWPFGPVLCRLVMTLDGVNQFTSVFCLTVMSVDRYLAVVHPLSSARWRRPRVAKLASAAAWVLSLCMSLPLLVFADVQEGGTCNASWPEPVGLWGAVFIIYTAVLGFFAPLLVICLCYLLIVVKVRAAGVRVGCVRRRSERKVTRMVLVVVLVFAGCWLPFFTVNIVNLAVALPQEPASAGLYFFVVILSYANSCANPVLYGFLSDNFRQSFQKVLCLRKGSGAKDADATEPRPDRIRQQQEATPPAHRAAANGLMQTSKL

For `C[C@@H](O)[C@@H]1NC(=O)[C@H](CCCCN)NC(=O)[C@@H](Cc2c[nH]c3ccccc23)NC(=O)[C@H](Cc2c[nH]c3ccccc23)NC(=O)[C@H](Cc2ccccc2)NC(=O)[C@@H](NC(=O)[C@@H](Cc2ccccc2)NC(=O)CCCNC(=S)Nc2ccc3c(c2)C(=O)OC32c3ccc(O)cc3Oc3cc(O)ccc32)CSSCCN(CC(N)=O)C(=O)[C@H](Cc2ccccc2)NC1=O` [Compound 1, FITC-GABA-DPhe-Cys*-Phe-Trp-DTrp-Lys-Thr-Phe-GlyS2*-NH2, reference compound], the “Intensity in healthy tissue (in words)” value (PANC-1 tumors) was “undetectable in liver tissue”.

In the case of `C[C@@H](O)[C@@H]1NC(=O)[C@H](CCCCN)NC(=O)[C@@H](Cc2c[nH]c3ccccc23)NC(=O)[C@H](Cc2ccccc2)NC(=O)[C@@H](NC(=O)[C@H](CCCNC(=N)N)NC(=O)[C@@H](Cc2ccccc2)NC(=O)CCCNC(=S)Nc2ccc3c(c2)C(=O)OC32c3ccc(O)cc3Oc3cc(O)ccc32)CSSCCN(CC(N)=O)C(=O)[C@H](Cc2ccccc2)NC1=O` [Compound 2, FITC-GABA-D-Phe-Arg-Cys-Phe-D-Trp-Lys-Thr-Phe-GlyS2] ({FITC-GABA}-[dF]RCF[dW]KTF[N(2-mercaptoethyl)Gly]-NH2; disulfide 3-9), the “Intensity in healthy tissue (in words)” value (PANC-1 tumors) is reported as “undetectable in spleen, kidney and liver tissue”.

In the case of `CC(=O)NCCCC[C@@H]1NC(=O)[C@@H](Cc2c[nH]c3ccccc23)NC(=O)[C@H](Cc2c[nH]c3ccccc23)NC(=O)[C@H](Cc2ccccc2)NC(=O)[C@@H](NC(=O)[C@@H](Cc2ccccc2)NC(=O)CCCNC(=S)Nc2ccc3c(c2)C(=O)OC32c3ccc(O)cc3Oc3cc(O)ccc32)CSSCCN(CC(N)=O)C(=O)[C@H](Cc2ccccc2)NC(=O)[C@H]([C@@H](C)O)NC1=O` [Compound 14, FITC-GABA-D-Phe-Cys-Phe-Trp-D-Trp-LysAc-Thr-Phe-GlyS2], the “Relative binding affinity SSTR4” value (human SSTR4; [1]) is reported as 3, the “Adjusted binding affinity SSTR4” value (human SSTR4; [2]) is reported as 1 and the “Binding affinity to SSTR4 relative to Compound 1” value (human SSTR4; [3]) is reported as 13. For the same molecule, the “Relative binding affinity SSTR5” value (human SSTR5; [1]) was 2, the “Adjusted binding affinity SSTR5” value (human SSTR5; [2]) was 0.67 and the “Binding affinity to SSTR5 relative to Compound 1” value (human SSTR5; [3]) was 7.

In the case of `CC(C)[C@@H]1NC(=O)[C@H](CCCCN)NC(=O)[C@@H](Cc2c[nH]c3ccccc23)NC(=O)[C@H](Cc2ccc(O)cc2)NC(=O)[C@@H](NC(=O)[C@H](N)Cc2ccc3ccccc3c2)CSSC[C@@H](C(=O)N[C@H](C(N)=O)[C@@H](C)O)NC1=O` [Lanreotide, Napht-Cys*-Tyr-Trp-Lys-Val-Cys*-Thr], the “Affinity of binding to the SSTRx (in words)” value (SSTR1-SSTR5) is listed as “high-affinity binding to SSTR2, moderate affinity binding to SSTRR3 and SSTR5, and almost no affinity binding to SSTR1 and SSTR4”.

For “DPhe-Cys*-Phe-DTrp-Lys-Thr-Cys*-Throl [Octreotide]”, the “Affinity of binding to the SSTRx (in words)” value (SSTR1-SSTR5) is given as “high-affinity binding to SSTR2, moderate affinity binding to SSTRR3 and SSTR5, and almost no affinity binding to SSTR1 and SSTR4”.
